Laboratory results taken from patent publication US8461328B2, “Tricyclic heterocyclic compounds, compositions and methods of use thereof” (Genentech, Inc., priority 2010, dated 2013).

Legend:
Type in all cases: biochemical
[1] = biological target: T1, JAK2 (Homo sapiens, UniProt O60674); experiment: JAK2 inhibition (Table 4); details: read-out: JAK2 Ki
T1 construct: made in house; host or cells: SF9 insect cells (baculovirus)

[2] = biological target: T2, JAK3 (Homo sapiens, UniProt P52333); experiment: JAK3 inhibition (Table 4); details: read-out: JAK3 Ki
T2 construct: made in house; host or cells: SF9 insect cells (baculovirus)

[3] = biological target: T3, TYK2 (Homo sapiens, UniProt P29597); experiment: TYK2 inhibition (Table 4)
T3 construct: made in house; host or cells: SF9 insect cells (baculovirus)
T3 sequence (P29597 873-1187): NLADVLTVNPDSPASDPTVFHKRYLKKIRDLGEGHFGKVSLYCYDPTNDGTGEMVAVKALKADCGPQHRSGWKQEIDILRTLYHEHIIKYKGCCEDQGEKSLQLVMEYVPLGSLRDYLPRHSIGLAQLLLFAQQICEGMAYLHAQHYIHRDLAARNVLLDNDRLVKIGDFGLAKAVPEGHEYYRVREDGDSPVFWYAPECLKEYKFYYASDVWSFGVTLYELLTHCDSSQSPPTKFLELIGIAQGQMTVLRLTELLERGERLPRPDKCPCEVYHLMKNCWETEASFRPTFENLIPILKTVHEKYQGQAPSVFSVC

T1 sequence (O60674 812-1132): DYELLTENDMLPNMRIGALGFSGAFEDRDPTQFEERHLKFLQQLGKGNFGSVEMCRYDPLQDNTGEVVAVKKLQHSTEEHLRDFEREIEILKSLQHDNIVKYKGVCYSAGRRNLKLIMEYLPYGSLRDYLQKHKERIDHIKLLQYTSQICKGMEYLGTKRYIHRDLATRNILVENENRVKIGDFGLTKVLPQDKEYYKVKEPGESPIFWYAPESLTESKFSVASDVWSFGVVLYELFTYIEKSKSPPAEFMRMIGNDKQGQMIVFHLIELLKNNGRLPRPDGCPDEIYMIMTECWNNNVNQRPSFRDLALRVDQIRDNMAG
T2 sequence (P52333 783-1124): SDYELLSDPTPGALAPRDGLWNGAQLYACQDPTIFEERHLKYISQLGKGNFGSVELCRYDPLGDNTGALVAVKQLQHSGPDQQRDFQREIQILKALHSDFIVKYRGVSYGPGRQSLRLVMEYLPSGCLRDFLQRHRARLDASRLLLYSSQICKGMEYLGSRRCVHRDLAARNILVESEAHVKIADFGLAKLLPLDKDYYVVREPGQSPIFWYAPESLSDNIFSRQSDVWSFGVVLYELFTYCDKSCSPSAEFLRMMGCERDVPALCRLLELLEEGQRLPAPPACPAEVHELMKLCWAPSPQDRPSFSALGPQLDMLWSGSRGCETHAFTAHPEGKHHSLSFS

Ki [1] [nM]	Ki [2] [nM]	Ki [3] [nM]	Structure (SMILES)
9.51	37.1	120	CC(C)(C)OC(=O)NC1CCC(n2cnc3cnc4[nH]ccc4c32)C1 (racemic) [Example 137, Racemic trans [3-(6H-1,2,3,5,6-Tetraaza-as-indacen-1-yl)-cyclopentyl]-carbamic acid tert-butyl ester]
27.7	143	222	CC(C)(C)OC(=O)NC1CCC(n2cnc3cnc4[nH]ccc4c32)C1 (racemic) [Example 138, Racemic cis[3-(6H-1,2,3,5,6-Tetraaza-as-indacen-1-yl)-cyclopentyl]-carbamic acid tert-butyl ester]
14.6	31.1	118	O=C(CC(F)(F)F)NC1CCC(n2nnc3cnc4[nH]ccc4c32)C1 (racemic) [Example 619, Racemic trans 3,3,3-trifluoro-N-[3-(6H-1,2,3,5,6-pentaaza-as-indacen-1-yl)-cyclopentyl]-propionamide]
8.06	54.3	28.5	COC(=O)NC1CCC(n2cnc3cnc4[nH]ccc4c32)C1 (racemic) [Example 734, [3-(6H-1,3,5,6-Tetraaza-as-indacen-1-yl)-cyclopentyl]-carbamic acid methyl ester]
94.6	1980	295	CN1CCCCC1C(=O)N1CCC(n2cnc3cnc4[nH]ccc4c32)CC1 (single isomer, unassigned) [Example 196, (1-Methyl-piperidin-2-yl)-[4-(6H-1,2,3,5,6-tetraaza-as-indacen-1-yl)-piperidin-1-yl]-methanone]
1340	–	–	CN1CCCCC1C(=O)N1CCC(n2cnc3cnc4[nH]ccc4c32)CC1 (single isomer, unassigned) [Example 196a, (1-Methyl-piperidin-2-yl)-[4-(6H-1,2,3,5,6-tetraaza-as-indacen-1-yl)-piperidin-1-yl]-methanone]
–	217	80.1	c1cc2c(ncc3ncn(C4CCNCC4)c32)[nH]1 [Example 28, 1-Piperidin-4-yl-1,6-dihydro-1,3,5,6-tetraaza-as-indacene]
35	162	143	N#CCC(=O)N1CCC(n2cnc3cnc4[nH]ccc4c32)CC1 [Example 33, 3-Oxo-3-[4-(6H-1,3,5,6-tetraaza-as-indacen-1-yl)-piperidin-1-yl]propionitrile]
26.1	692	165	O=C(c1ccccc1)N1CCC(n2cnc3cnc4[nH]ccc4c32)CC1 [Example 35, Phenyl-[4-(6H-1,3,5,6-tetraaza-as-indacen-1-yl)-piperidin-1-yl]methanone]
242	1620	1190	CN(C)CC(=O)N1CCC(n2cnc3cnc4[nH]ccc4c32)CC1 [Example 36, 2-Dimethylamino-1-[4-(6H-1,3,5,6-tetraaza-as-indacen-1-yl)-piperidin-1-yl]ethanone]
3.15	4.14	56	c1ncc(CN2CCC(n3cnc4cnc5[nH]ccc5c43)CC2)cn1 [Example 52, 1-(1-Pyrimidin-5-ylmethyl-piperidin-4-yl)-1,6-dihydro-1,3,5,6-tetraaza-as-indacene]
2.99	84.1	18.7	CS(=O)(=O)N1CCC(n2cnc3cnc4[nH]ccc4c32)CC1 [Example 54, 1-(1-Methanesulfonyl-piperidin-4-yl)-1,6-dihydro-1,3,5,6-tetraaza-as-indacene]
6.59	334	31	O=S(=O)(c1ccccc1)N1CCC(n2cnc3cnc4[nH]ccc4c32)CC1 [Example 55, 1-(1-Benzenesulfonyl-piperidin-4-yl)-1,6-dihydro-1,3,5,6-tetraaza-as-indacene]
1	16.4	3.57	N#CCCN1CCC(n2cnc3cnc4[nH]ccc4c32)CC1 [Example 58, 3-[4-(6H-1,3,5,6-Tetraaza-as-indacen-1-yl)-piperidin-1-yl]propionitrile]
137	1120	436	CN1CCC[C@H]1C(=O)N1CCC(n2cnc3cnc4[nH]ccc4c32)CC1 [Example 78, ((S)-1-Methyl-pyrrolidin-2-yl)-[4-(6H-1,3,5,6-tetraaza-as-indacen-1-yl)-piperidin-1-yl]methanone]
51	1230	187	CC(C)CC(=O)N1CCC(n2cnc3cnc4[nH]ccc4c32)CC1 [Example 83, 3-Methyl-1-[4-(6H-1,3.5,6-tetraaza-as-indacen-1-yl)-piperidin-1-yl]-butan-1-one]
19.7	115	90	N#Cc1ccnc(N2CCC(n3cnc4cnc5[nH]ccc5c43)CC2)c1 [Example 96, 4-(6H-1,3,5,6-Tetraaza-as-indacen-1-yl)-3,4,5,6-tetrahydro-2H-[1,2′]bipyridinyl-4′-carbonitrile]
3.53	23.1	16.4	CS(=O)(=O)N[C@H]1CC[C@H](n2cnc3cnc4[nH]ccc4c32)CC1 [Example 105, Trans N-[4-(6H-1,3,5,6-tetraaza-as-indacen-1-yl)-cyclohexyl]-methanesulfonamide]
–	239	–	N[C@H]1CC[C@H](n2nnc3cnc4[nH]ccc4c32)CC1 [Example 279, 4-(6H-1,2,3,5,6-Pentaaza-as-indacen-1-yl)-cyclohexylamine]
–	127	–	N#CCCN[C@H]1CC[C@H](n2nnc3cnc4[nH]ccc4c32)CC1 [Example 280, 3-[4-(6H-1,2,3,5,6-Pentaaza-as-indacen-1-yl)-cyclohexylamino]-propionitrile]
–	461	–	C[C@@H](O)c1nc2cnc3[nH]ccc3c2n1[C@@H]1CCCN(CCC#N)C1 [Example 362, 3-{(R)-3-[2-((R)-1-Hydroxy-ethyl)-6H-1,3,5,6-tetraaza-as-indacen-1-yl]-piperidin-1-yl}-propionitrile]
–	140	–	O[C@H]1CC[C@H](n2nnc3cnc4[nH]ccc4c32)CC1 [Example 546, trans 4-(6H-1,2,3,5,6-Pentaaza-as-indacen-1-yl)-cyclohexanol]
–	371	–	CO[C@H]1CC[C@H](n2c([C@@H](C)O)nc3cnc4[nH]ccc4c32)CC1 [Example 635, Trans (R)-1-[1-(4-methoxy-cyclohexyl)-1,6-dihydro-1,2,3,5,6-tetraaza-as-indacen-2-yl]-ethanol]
–	188	–	C[C@@H](O)c1nc2cnc3[nH]ccc3c2n1[C@@H]1CCCN(CCC#N)C1 [Example 663, 3-{(R)-3-[2-((R)-1-Hydroxy-ethyl)-6H-1,2,3,5,6-tetraaza-as-indacen-1-yl]-piperidin-1-yl}-propionitrile]
–	35.7	15.3	CCC(O)c1nc2cnc3[nH]ccc3c2n1C1CCCCC1 (stereo not drawn) [Example 876, 1-(1-Cyclohexyl-1,6-dihydro-1,3,5,6-tetraaza-as-indacen-2-yl)-propan-1-ol]
–	18.5	–	C[C@@H](O)c1nc2cnc3[nH]ccc3c2n1C1CCC(CCC#N)CC1 (stereo partly drawn) [Example 1007, 3-{4-[2-((R)-1-Hydroxy-ethyl)-6H-1,3,5,6-tetraaza-as-indacen-1-yl]-cyclohexyl}-propionitrile]
